Target: T1, human full-length recombinant PKC βII (Homo sapiens, UniProt P05771)
T1 construct: Active human full-length recombinant PKC βII; purchased Invitrogen GmbH, Darmstadt, Germany
Assay: Determination of PKC βII inhibition (Caliper mobility-shift kinase assay, Fluorescein-RFARKGSLRQKNV peptide substrate)
Assay type: biochemical
Conditions: example compounds at a final concentration of 1.14 μM (±0.15 μM)
In short: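 Full-length PKC βII (30 ng/ml in pre-dilution) with PS/DAG/Ca2+ activators, pH 7.4; fluorescein peptide and ATP at 3 μM and 120 μM before mixing. Reaction ran 60 min at 32 °C, was EDTA-stopped, and was read by mobility shift. % inhibition came from product/(substrate+product) peak heights, tested at 1.14 μM final.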

T1 sequence (P05771 1-673 isoform P05771-2): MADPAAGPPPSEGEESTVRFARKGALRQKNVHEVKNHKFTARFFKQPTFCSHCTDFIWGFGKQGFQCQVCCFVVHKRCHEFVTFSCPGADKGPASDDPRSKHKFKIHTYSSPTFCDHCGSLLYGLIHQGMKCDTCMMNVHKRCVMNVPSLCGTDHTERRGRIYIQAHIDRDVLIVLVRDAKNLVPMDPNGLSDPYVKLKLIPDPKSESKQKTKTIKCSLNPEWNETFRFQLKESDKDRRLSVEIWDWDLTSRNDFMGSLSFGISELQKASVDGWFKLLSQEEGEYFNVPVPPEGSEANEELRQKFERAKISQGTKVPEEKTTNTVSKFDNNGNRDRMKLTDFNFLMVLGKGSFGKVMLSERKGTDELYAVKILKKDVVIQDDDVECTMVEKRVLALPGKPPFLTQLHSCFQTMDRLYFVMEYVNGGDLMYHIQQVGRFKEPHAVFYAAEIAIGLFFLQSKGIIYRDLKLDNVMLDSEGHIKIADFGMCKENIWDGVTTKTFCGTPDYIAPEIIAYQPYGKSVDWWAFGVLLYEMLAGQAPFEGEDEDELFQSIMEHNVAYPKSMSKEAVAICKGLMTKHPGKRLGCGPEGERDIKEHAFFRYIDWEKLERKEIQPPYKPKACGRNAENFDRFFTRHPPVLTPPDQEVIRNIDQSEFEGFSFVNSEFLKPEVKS

SMILES	inhibition at 1.14 µM	% Inhibition
CC[C@H]1CN(C(=O)c2cc(-c3ccc(O)c(F)c3)nc3[nH]nc(C)c23)CCN1 [Example 295, ((S)-3-Ethyl-piperazin-1-yl)-[6-(3-fluoro-4-hydroxy-phenyl)-3-methyl-1H-pyrazolo[3,4-b]pyridin-4-yl]-methanone]	94%	–
Cc1n[nH]c2nc(-c3ccc(O)c(F)c3)cc(C(=O)N3CCNC4CS(=O)(=O)CC43)c12 (stereo not shown) [Example 296, (6,6-Dioxo-octahydro-6lambda6-thieno[3,4-b]pyrazin-1-yl)-[6-(3-fluoro-4-hydroxy-phenyl)-3-methyl-1H-pyrazolo[3,4-b]pyridin-4-yl]-methanone]	32%	–
COC(=O)[C@H]1CN(C(=O)c2cc(-c3ccc(O)c(F)c3)nc3[nH]nc(C)c23)CCN1 [Example 297, (R)-4-[6-(3-Fluoro-4-hydroxy-phenyl)-3-methyl-1H-pyrazolo[3,4-b]pyridine-4-carbonyl]-piperazine-2-carboxylic acid methyl ester]	34%	–
COC[C@H]1CN(C(=O)c2cc(-c3ccc(O)c(F)c3)nc3[nH]nc(C)c23)CCN1 [Example 298, [6-(3-Fluoro-4-hydroxy-phenyl)-3-methyl-1H-pyrazolo[3,4-b]pyridin-4-yl]-((R)-3-methoxymethyl-piperazin-1-yl)-methanone]	68%	–
Cc1n[nH]c2nc(-c3ccc(O)c(F)c3)cc(C(=O)NC3CC4(CCNCC4)c4ccccc43)c12 (stereo not shown) [Example 299, 6-(3-Fluoro-4-hydroxy-phenyl)-3-methyl-1H-pyrazolo[3,4-b]pyridine-4-carboxylic acid (2,3-dihydro-spiro[1H-indene-1,4′-piperidin]-3-yl)-amide]	92%	–
Cc1n[nH]c2nc(-c3ccc(O)c(F)c3)cc(C(=O)N3CCNCC3Cc3ccccc3)c12 (stereo not shown) [Example 300, (2-Benzyl-piperazin-1-yl)-[6-(3-fluoro-4-hydroxy-phenyl)-3-methyl-1H-pyrazolo[3,4-b]pyridin-4-yl]-methanone]	74%	–
Cc1n[nH]c2nc(-c3ccc(O)c(F)c3)cc(C(=O)NC3CC4CCC(C3)N4C)c12 (stereo not shown) [Example 301, 6-(3-Fluoro-4-hydroxy-phenyl)-3-methyl-1H-pyrazolo[3,4-b]pyridine-4-carboxylic acid (8-methyl-8-aza-bicyclo[3.2.1]oct-3-yl)-amide]	63%	–
Cc1n[nH]c2nc(-c3ccc(O)c(F)c3)cc(C(=O)NC3CNC3)c12 [Example 302, 6-(3-Fluoro-4-hydroxy-phenyl)-3-methyl-1H-pyrazolo[3,4-b]pyridine-4-carboxylic acid azetidin-3-ylamide]	82%	–
Cc1n[nH]c2nc(-c3ccc(O)c(F)c3)cc(C(=O)N3CCNC(C)C3)c12 (stereo not shown) [Example 303, [6-(3-Fluoro-4-hydroxy-phenyl)-3-methyl-1H-pyrazolo[3,4-b]pyridin-4-yl]-(3-methyl-piperazin-1-yl)-methanone]	93%	–
Cc1n[nH]c2nc(-c3ccc(O)c(F)c3)cc(C(=O)N3CCC(N)CC3)c12 [Example 304, (4-Amino-piperidin-1-yl)-[6-(3-fluoro-4-hydroxy-phenyl)-3-methyl-1H-pyrazolo[3,4-b]pyridin-4-yl]-methanone]	91%	–
Cc1n[nH]c2nc(-c3ccc(O)c(F)c3)cc(C(=O)N[C@@H]3CCCNC3)c12 [Example 305, 6-(3-Fluoro-4-hydroxy-phenyl)-3-methyl-1H-pyrazolo[3,4-b]pyridine-4-carboxylic acid (R)-piperidin-3-ylamide]	83%	–
Cc1n[nH]c2nc(-c3ccc(O)c(F)c3)cc(C(=O)N3C[C@H]4CNC[C@H]4C3)c12 [Example 306, [6-(3-Fluoro-4-hydroxy-phenyl)-3-methyl-1H-pyrazolo[3,4-b]pyridin-4-yl]-(3aR,6aS)-hexahydro-pyrrolo[3,4-c]pyrrol-2-yl-methanone]	76%	–
Cc1n[nH]c2nc(-c3ccc(O)c(F)c3)cc(C(=O)N3CCC4CNCC43)c12 (stereo not shown) [Example 308, [6-(3-Fluoro-4-hydroxy-phenyl)-3-methyl-1H-pyrazolo[3,4-b]pyridin-4-yl]-(hexahydro-pyrrolo[3,4-b]pyrrol-1-yl)-methanone]	60%	–
Cc1n[nH]c2nc(-c3ccc(O)c(F)c3)cc(C(=O)N[C@H]3C[C@H](N)C3)c12 [Example 309, 6-(3-Fluoro-4-hydroxy-phenyl)-3-methyl-1H-pyrazolo[3,4-b]pyridine-4-carboxylic acid (trans-3-amino-cyclobutyl)-amide]	71%	–
Cc1n[nH]c2nc(-c3ccc(O)c(F)c3)cc(C(=O)N3C[C@H]4CC[C@@H](C3)C4N)c12 (stereo partly shown) [Example 310, (8-Amino-3-aza-bicyclo[3.2.1]oct-3-yl)-[6-(3-fluoro-4-hydroxy-phenyl)-3-methyl-1H-pyrazolo[3,4-b]pyridin-4-yl]-methanone]	91%	–
Cc1n[nH]c2nc(-c3ccc(O)c(F)c3)cc(C(=O)NC3CC4CCC(C3)N4C)c12 [Example 318, 6-(3-Fluoro-4-hydroxy-phenyl)-3-methyl-1H-pyrazolo[3,4-b]pyridine-4-carboxylic acid (3R)-8-methyl-8-aza-bicyclo[3.2.1]oct-3-yl)-amide]	–	61%

Second part, led by results:

inhibition at 1.14 µM	SMILES	% Inhibition
99%	Cc1n[nH]c2nc(-c3ccc(O)c(F)c3)cc(C(=O)N3CCNC[C@@H]3C)c12 [Example 313, [6-(3-Fluoro-4-hydroxy-phenyl)-3-methyl-1H-pyrazolo[3,4-b]pyridin-4-yl]-((S)-2-methyl-piperazin-1-yl)-methanone]	–
35%	Cc1n[nH]c2nc(-c3ccc(O)c(F)c3)cc(C(=O)N3CCNC(C(F)(F)F)C3)c12 (stereo not shown) [Example 314, [6-(3-Fluoro-4-hydroxy-phenyl)-3-methyl-1H-pyrazolo[3,4-b]pyridin-4-yl]-(3-trifluoromethyl-piperazin-1-yl)-methanone]	–
62%	Cc1n[nH]c2nc(-c3ccc(O)c(F)c3)cc(C(=O)N3CC(N)C3)c12 [Example 315, (3-Amino-azetidin-1-yl)-[6-(3-fluoro-4-hydroxy-phenyl)-3-methyl-1H-pyrazolo[3,4-b]pyridin-4-yl]-methanone]	–
51%	Cc1n[nH]c2nc(-c3ccc(O)c(F)c3)cc(C(=O)NCCC3CCCN3C)c12 (stereo not shown) [Example 316, 6-(3-Fluoro-4-hydroxy-phenyl)-3-methyl-1H-pyrazolo[3,4-b]pyridine-4-carboxylic acid [2-(1-methyl-pyrrolidin-2-yl)-ethyl]-amide]	–
59%	Cc1n[nH]c2nc(-c3ccc(O)c(F)c3)cc(C(=O)NC3CCN(C)CC3)c12 [Example 319, 6-(3-Fluoro-4-hydroxy-phenyl)-3-methyl-1H-pyrazolo[3,4-b]pyridine-4-carboxylic acid (1-methyl-piperidin-4-yl)-amide]	–
72%	Cc1n[nH]c2nc(-c3ccc(O)c(F)c3)cc(C(=O)N3CCNC[C@@H]3C(C)C)c12 [Example 320, [6-(3-Fluoro-4-hydroxy-phenyl)-3-methyl-1H-pyrazolo[3,4-b]pyridin-4-yl]-((S)-2-isopropyl-piperazin-1-yl)-methanone]	–
84%	Cc1n[nH]c2nc(-c3ccc(O)c(F)c3)cc(C(=O)N3CCNC[C@H]3Cc3ccccc3)c12 [Example 321, ((R)-2-Benzyl-piperazin-1-yl)-[6-(3-fluoro-4-hydroxy-phenyl)-3-methyl-1H-pyrazolo[3,4-b]pyridin-4-yl]-methanone]	–
68%	Cc1n[nH]c2nc(-c3ccc(O)c(F)c3)cc(C(=O)N3CC[C@@H](C4(N)CC4)C3)c12 [Example 322, [(R)-3-(1-Amino-cyclopropyl)-pyrrolidin-1-yl]-[6-(3-fluoro-4-hydroxy-phenyl)-3-methyl-1H-pyrazolo[3,4-b]pyridin-4-yl]-methanone]	–
42%	Cc1n[nH]c2nc(-c3ccc(O)c(F)c3)cc(C(=O)N3CCC4(CNCCO4)C3)c12 (stereo not shown) [Example 323, [6-(3-Fluoro-4-hydroxy-phenyl)-3-methyl-1H-pyrazolo[3,4-b]pyridin-4-yl]-(6-oxa-2,9-diaza-spiro[4.5]dec-2-yl)-methanone]	–
69%	Cc1n[nH]c2nc(-c3ccc(O)c(F)c3)cc(C(=O)N3CCCC4CNCCC43)c12 (stereo not shown) [Example 324, [6-(3-Fluoro-4-hydroxy-phenyl)-3-methyl-1H-pyrazolo[3,4-b]pyridin-4-yl]-(octahydro-[1,6]naphthyridin-1-yl)-methanone]	–
76%	Cc1n[nH]c2nc(-c3ccc(O)c(F)c3)cc(C(=O)N3CCNC[C@H]3C(=O)NC(C)(C)C)c12 [Example 325, (S)-1-[6-(3-Fluoro-4-hydroxy-phenyl)-3-methyl-1H-pyrazolo[3,4-b]pyridine-4-carbonyl]-piperazine-2-carboxylic acid tert-butylamide]	–
83%	Cc1n[nH]c2nc(-c3ccc(O)c(F)c3)cc(C(=O)N3CCN[C@@H](C(C)C)C3)c12 [Example 326, [6-(3-Fluoro-4-hydroxy-phenyl)-3-methyl-1H-pyrazolo[3,4-b]pyridin-4-yl]-((S)-3-isopropyl-piperazin-1-yl)-methanone]	–
92%	Cc1n[nH]c2nc(-c3ccc(O)c(F)c3)cc(C(=O)N3CCNCC3c3cccnc3)c12 (stereo not shown) [Example 327, [6-(3-Fluoro-4-hydroxy-phenyl)-3-methyl-1H-pyrazolo[3,4-b]pyridin-4-yl]-(2-pyridin-3-yl-piperazin-1-yl)-methanone]	–
80%	COC(=O)[C@H]1CNCCN1C(=O)c1cc(-c2ccc(O)c(F)c2)nc2[nH]nc(C)c12 [Example 328, (R)-1-[6-(3-Fluoro-4-hydroxy-phenyl)-3-methyl-1H-pyrazolo[3,4-b]pyridine-4-carbonyl]-piperazine-2-carboxylic acid methyl ester]	–
72%	Cc1n[nH]c2nc(-c3ccc(O)c(F)c3)cc(C(=O)N3CCC4(CC3)CNC4)c12 [Example 329, (2,7-Diaza-spiro[3.5]non-7-yl)-[6-(3-fluoro-4-hydroxy-phenyl)-3-methyl-1H-pyrazolo[3,4-b]pyridin-4-yl]-methanone]	–

Reference: patent publication US8686150B2 (Sanofi, priority 2011, dated 2014)
